# Experimental data published in patent publication US20150284385A1, “CERTAIN DIPEPTIDYL PEPTIDASE INHIBITORS” (SHANGHAI FOCHON PHARMACEUTICAL CO LTD, priority 2012, published 2015).
# Like-named read-outs stand apart in the source and are kept apart here.
# Tests used:
# [1] = target: Recombinant human DPP-IV (Homo sapiens, UniProt P27487); experiment: DPP-IV assay in vitro (H-Ala-Pro-AFC fluorescence); assay type: biochemical; conditions: 30 min pre-incubation, H-Ala-Pro-AFC 50 μM
# Method: DPP-IV Assay Solutions of test compounds in varying concentrations (10^−5 mol/L, 10^−6 mol/L, 10^−7 mol/L, 10^−8 mol/L, 10^−9 mol/L, 10^−10 mol/L, 10^−11 mol/L, and 10^−12 mol/L) were prepared in dimethyl sulfoxide (DMSO) and then diluted into assay buffer comprising: 10 mM Tris-HCl pH 8.0, 0.2 M NaCl, and 0.1% BSA. Recombinant human DPP-IV (7.8 ng/ml final concentration) was added to the dilutions and pre-incubated for 30 mins at room temperature before the reaction was initiated with H-Ala-Pro-AFC (50 μM final concentration). The total volume of the reaction mixture was 100 μl.
# Inhibition constants (IC50) were calculated by GraphPad Prism.
# [2] = target: T1, DPP-4 (Mus musculus, UniProt P28843); experiment: Plasma DPP-4 activity in mice after oral dosing; assay type: in vivo, ICR mice; conditions: read-out: DPP-4 Relative activity %; for activity at 1 mg/kg: oral 1 mg/kg; for activity at 3 mg/kg: mice plasma, oral 3 mg/kg
# T1 construct: Blood sample was processed to obtain plasma; from tissue; host or cells: plasma of male ICR mice
# Method: Some of the exemplary compounds were tested in mice to assess inhibition of DPP-4 activity via plasma DPP-4 activity. Male ICR mice (25-30 g) were used for this study. All the mice were fasted at least 3 hours before study. Mice (n=6/group) received vehicle or at least one of the exemplary compounds by oral gavage. The dosing solutions were 0.15 mg/ml for the 3 mg/kg. Dosing volume was 20 mL/kg of body weight for all doses. The vehicle was distilled water. […] Blood sample was processed to obtain plasma (2000 g, 5 min, 4° C.) within 15 min after sampling.
# Plasma was collected and tested by fluoremetry. Before the testing, 80 mM MgCl2 buffer was added into the 5 uL serum samples and pre-incubation for 5 minutes at room temperature, then […] of 0.1 mM substrate Gly-Pro-AMC and 20 μL of buffer were added into them. The fluorescence of the mixture was measured every 3 minutes after mixing (excitation at 380 nm; emission at 460 nm). After 6 times of measurements, a time-fluorescence cure was obtained. The slope of the curve would be the activity of DPP-4 in serum. The DPP-4 activity before administration was 100%. The relative activity of DPP-4 in serum was calculated using the formula below:
# Relative DPP-4activity=DPP-4activity after dosing/DPP-4activity before dosing×100%.
# [3] = Table 4 Test 2, mice plasma, 1 h after dosing
# [4] = Table 4 Test 2, mice plasma, 2 h after dosing
# [5] = Table 4 Test 2, mice plasma, 4 h after dosing
# [6] = Table 4 Test 2, mice plasma, 6 h after dosing
# [7] = Table 4 Test 2, mice plasma, 9 h after dosing
# [8] = Table 4 Test 2, mice plasma, 24 h after dosing
# Chain of Recombinant human DPP-IV (P27487 whole entry): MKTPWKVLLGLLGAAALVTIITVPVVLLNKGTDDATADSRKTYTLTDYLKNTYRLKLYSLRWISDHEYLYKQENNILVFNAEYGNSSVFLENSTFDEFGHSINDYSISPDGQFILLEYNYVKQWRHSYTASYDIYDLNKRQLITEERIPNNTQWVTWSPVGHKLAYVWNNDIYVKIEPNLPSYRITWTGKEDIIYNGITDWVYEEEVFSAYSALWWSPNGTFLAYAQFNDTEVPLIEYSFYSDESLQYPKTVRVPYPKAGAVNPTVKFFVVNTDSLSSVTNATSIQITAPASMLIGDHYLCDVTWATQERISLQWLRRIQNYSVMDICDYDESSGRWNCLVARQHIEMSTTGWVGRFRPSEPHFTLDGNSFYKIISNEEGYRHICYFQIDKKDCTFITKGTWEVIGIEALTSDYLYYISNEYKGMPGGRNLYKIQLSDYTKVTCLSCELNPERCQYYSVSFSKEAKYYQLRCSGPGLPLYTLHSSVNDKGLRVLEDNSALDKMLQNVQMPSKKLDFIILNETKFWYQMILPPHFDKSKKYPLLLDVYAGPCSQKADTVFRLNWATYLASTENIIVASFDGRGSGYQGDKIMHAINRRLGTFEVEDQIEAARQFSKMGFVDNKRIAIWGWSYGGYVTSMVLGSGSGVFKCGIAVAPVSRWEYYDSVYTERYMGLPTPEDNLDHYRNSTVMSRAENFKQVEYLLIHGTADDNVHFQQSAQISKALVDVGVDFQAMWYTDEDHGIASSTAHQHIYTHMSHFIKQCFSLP
# T1 sequence (P28843 37-760 limits assumed): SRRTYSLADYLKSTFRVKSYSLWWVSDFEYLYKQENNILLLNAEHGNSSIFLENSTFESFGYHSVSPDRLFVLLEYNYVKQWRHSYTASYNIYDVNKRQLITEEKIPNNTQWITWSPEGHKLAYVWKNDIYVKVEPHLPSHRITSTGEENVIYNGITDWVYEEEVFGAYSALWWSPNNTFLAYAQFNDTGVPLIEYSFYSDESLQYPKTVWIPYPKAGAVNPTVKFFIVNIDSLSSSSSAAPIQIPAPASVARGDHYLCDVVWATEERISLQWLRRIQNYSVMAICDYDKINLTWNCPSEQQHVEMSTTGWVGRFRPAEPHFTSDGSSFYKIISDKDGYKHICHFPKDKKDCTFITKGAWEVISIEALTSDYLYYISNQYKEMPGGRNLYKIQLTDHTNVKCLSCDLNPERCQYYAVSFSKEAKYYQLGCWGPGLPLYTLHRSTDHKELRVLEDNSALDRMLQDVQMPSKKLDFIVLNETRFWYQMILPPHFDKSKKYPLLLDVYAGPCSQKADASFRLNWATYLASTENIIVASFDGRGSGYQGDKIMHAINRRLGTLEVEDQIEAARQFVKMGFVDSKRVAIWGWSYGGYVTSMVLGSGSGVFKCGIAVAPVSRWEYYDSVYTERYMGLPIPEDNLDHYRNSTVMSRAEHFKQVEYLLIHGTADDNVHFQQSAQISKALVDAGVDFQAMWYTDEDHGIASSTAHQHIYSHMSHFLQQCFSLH
IC50 [1] [nM],"activity at 1 mg/kg [2, 3] [%]","activity at 1 mg/kg [2, 4] [%]","activity at 1 mg/kg [2, 5] [%]","activity at 1 mg/kg [2, 6] [%]","activity at 1 mg/kg [2, 7] [%]","activity at 1 mg/kg ([2]; Table 4 Test 2, mice plasma, 12 h after dosing) [%]","activity at 1 mg/kg [2, 8] [%]",activity at 3 mg/kg ([2]; 1 h after dosing) [%],activity at 3 mg/kg ([2]; 2 h after dosing) [%],activity at 3 mg/kg ([2]; 3 h after dosing) [%],activity at 3 mg/kg ([2]; 5 h after dosing) [%],"activity at 1 mg/kg ([2]; Table 4 Test 3, mice plasma, 1 h after dosing) [%]","activity at 1 mg/kg ([2]; Table 4 Test 3, mice plasma, 2 h after dosing) [%]","activity at 1 mg/kg ([2]; Table 4 Test 3, mice plasma, 4 h after dosing) [%]","activity at 1 mg/kg ([2]; Table 4 Test 3, mice plasma, 6 h after dosing) [%]","activity at 1 mg/kg ([2]; Table 4 Test 3, mice plasma, 9 h after dosing) [%]","activity at 1 mg/kg ([2]; Table 4 Test 3, mice plasma, 12 h after dosing) [%]","activity at 1 mg/kg ([2]; Table 4 Test 3, mice plasma, 24 h after dosing) [%]",SMILES
1.7,15 ± 0.6,13.6 ± 1.7,8.6 ± 1.1,13.8 ± 2.4,11.8 ± 2.4,15.6 ± 2.4,38.4 ± 4.3,16 ± 2.3,15 ± 3,20 ± 1.8,26.5 ± 3.5,–,–,–,–,–,–,–,"N[C@H]1Cc2c(nc3cc(-c4ncon4)ccn23)C[C@@H]1c1cc(F)c(F)cc1F [Example 3, (7R,8S)-3-(1,2,4-Oxadiazol-3-yl)-7-(2,4,5-trifluorophenyl)-6,7,8,9-tetrahydrobenzo[4,5]imidazo[1,2-a]pyridine-8-amine]"
1.2,9.4 ± 1.8,11.6 ± 2,7.7 ± 2.1,9.6 ± 1.3,7.8 ± 2.7,–,16.4 ± 3.7,17 ± 3.3,22.6 ± 3.1,22.6 ± 1.1,25.9 ± 3.8,–,–,–,–,–,–,–,"Cc1nnc(-c2ccn3c4c(nc3c2)C[C@H](c2cc(F)c(F)cc2F)[C@@H](N)C4)o1 [Example 2, (7R,8S)-3-(5-Methyl-1,3,4-oxadiazol-2-yl)-7-(2,4,5-trifluorophenyl)-6,7,8,9-tetrahydrobenzo[4,5]imidazo[1,2-a]pyridin-8-amine]"
0.8,–,–,–,–,–,–,–,38.7 ± 4.2,34.9 ± 3,31.2 ± 2.3,39.2 ± 3.3,11.9 ± 1.2,7.4 ± 1,8.6 ± 0.8,8.4 ± 1.3,9 ± 1.2,8.8 ± 0.9,14.4 ± 1.8,"N[C@H]1Cc2c(nc3cc(-c4nnco4)ccn23)C[C@@H]1c1cc(F)c(F)cc1F [Example 1, (7R,8S)-3-(1,3,4-Oxadiazol-2-yl)-7-(2,4,5-trifluorophenyl)-6,7,8,9-tetrahydrobenzo[4,5]imidazo[1,2-a]pyridine-8-amine]"
